Test results: paper PMC4256409, “Role of Phenylalanine and Valine^10 Residues in the Antimicrobial Activity and Cytotoxicity of Piscidin-1” (PLoS ONE, 2014)
Where no end group is shown, it is not given here.

The sequences below were run on MRSA CCARM3089. Details: CCARM3089, 16 h.
Assay type: cell-based, Methicillin-resistant S. aureus
Work on AFHHIFRGIVHVGKTIHRLVTG [Pis-F1A] yielded an MIC of 8.0 µM.

The sequences below were run on MDRPA CCARM 2003. Details: broth microdilution, 37°C, 16 h, three independent experiments in triplicate, SD 14.0%.
Assay type: cell-based, multidrug-resistant P. aeruginosa
Work on AFHHIFRGIVHVGKTIHRLVTG [Pis-F1A] yielded an MIC of 2.0 µM.

What follows are sequences tested on MDREC CCARM 1238. Details: broth microdilution, 37°C, 16 h, three independent experiments in triplicate, SD 14.0%.
Assay type: cell-based, multidrug-resistant E. coli
In the case of AFHHIFRGIVHVGKTIHRLVTG [Pis-F1A], the MIC is reported as 8.0 µM.

What follows are sequences tested on E.coli KCTC2571. Details: KCTC2571, 16 h.
Assay type: cell-based, Escherichia coli
In the case of AFHHIFRGIVHVGKTIHRLVTG [Pis-F1A], the MIC is reported as 2.0 µM.

Each sequence was assayed on MRSA CCARM 3114. Details: CCARM 3114, 16 h.
Assay type: cell-based, Methicillin-resistant S. aureus
AFHHIFRGIVHVGKTIHRLVTG [Pis-F1A] showed an MIC of 8.0 µM.

These sequences were tested on S. aureus KCTC1916. Details: KCTC1916, 16 h.
Assay type: cell-based, Staphylococcus aureus
For AFHHIFRGIVHVGKTIHRLVTG [Pis-F1A], the MIC was 1.0 µM.

Each sequence was assayed on MDRPA CCARM 2095. Details: broth microdilution, 37°C, 16 h, three independent experiments in triplicate, SD 14.0%.
Assay type: cell-based, multidrug-resistant P. aeruginosa
Sequence AFHHIFRGIVHVGKTIHRLVTG [Pis-F1A] has an MIC of 2.0 µM.

Each sequence was assayed on MDRPA CCARM 2163. Details: broth microdilution, 37°C, 16 h, three independent experiments in triplicate, SD 14.0%.
Assay type: cell-based, multidrug-resistant P. aeruginosa
Sequence AFHHIFRGIVHVGKTIHRLVTG [Pis-F1A] has an MIC of 2.0 µM.

These sequences were tested on MDREC CCARM 1229. Details: broth microdilution, 37°C, 16 h, three independent experiments in triplicate, SD 14.0%.
Assay type: cell-based, multidrug-resistant E. coli
AFHHIFRGIVHVGKTIHRLVTG [Pis-F1A] showed an MIC of 8.0 µM.

These sequences were tested on Drug-resistant bacterial strains. Details: average over the 18 drug-resistant bacterial strains of Table 3.
Text: Escherichia coli KCTC 1682, E. coli KCTC 2593, E. coli KCTC 2571, Salmonella typhimurium KCTC 1926, Pseudomonas aeruginosa KCTC 1637, P. aeruginosa KCTC 2004, P. aeruginosa KCTC 2513, Bacillus subtilis KCTC 3068, B. subtilis KCTC 1021, B. subtilis KCTC 1022, Staphylococcus epidermidis KCTC 1917, Staphylococcus aureus KCTC 1621, S. aureus KCTC 1916, and S. aureus KCTC 3881 were purchased from the Korean Collection for Type Cultures, Korea Research Institute of Bioscience & Biotechnology (Taejon, Korea). Methicillin-resistant S. aureus (MRSA) (CCARM 3089, CCARM 3090, CCARM 3108, CCARM 3114, and CCARM 3126), multidrug-resistant E. coli (MDREC) (CCARM 1229 and CCARM 1238), multidrug-resistant S. typhimurium (MDRST) (CCARM 8003, CCARM 8007, and CCARM 8009), multidrug-resistant Acinetobacter baumanii (MDRAB) (CCARM 12005, CCARM 12035, CCARM 12036, CCARM 12037), and multidrug-resistant P. aeruginosa (MDRPA) (CCARM 2002, CCARM 2003, CCARM 2095, and CCARM 2163) were obtained from the Culture Collection of Antibiotic-Resistant Microbes (CCARM) at Seoul Women’s University in Korea. The antimicrobial activities of the peptides against selected organisms, including three Gram-positive, three Gram-negative, and five antibiotic-resistant bacteria, were determined using a broth microdilution assay. Briefly, single colonies of bacteria and fungi were inoculated into Luria-Bertani (LB) medium and cultured overnight at 37°C. An aliquot of the culture was transferred to 10 mL of fresh LB and incubated for an additional 3–5 h at 37°C until it reached the mid-logarithmic phase. Two-fold serial dilutions of the peptides in 1% peptone were prepared. The serial dilutions (100 µL) were added to 100 µL of cells (2×10^6 colony-forming units (CFU)/mL) in 96-well microtiter plates and incubated at 37°C for 16 h. […] MIC values were calculated as the average of triplicate measurements from three independent assays.
In the case of AFHHIFRGIVHVGKTIHRLVTG [Pis-F1A], the “Average MIC” value is reported as 5.3 µM.

The sequences below were run on MDRAB CCARM 12036. Details: broth microdilution, 37°C, 16 h, three independent experiments in triplicate, SD 14.0%.
Assay type: cell-based, multidrug-resistant Acinetobacter baumanii
Sequence AFHHIFRGIVHVGKTIHRLVTG [Pis-F1A] has an MIC of 2.0 µM.

What follows are sequences tested on S. typhimurium KCTC1926. Details: KCTC1926, 16 h.
Assay type: cell-based, Salmonella typhimurium
AFHHIFRGIVHVGKTIHRLVTG [Pis-F1A] showed an MIC of 8.0 µM.

What follows are sequences tested on MDRST CCARM 8009. Details: broth microdilution, 37°C, 16 h, three independent experiments in triplicate, SD 14.0%.
Assay type: cell-based, multidrug-resistant S. typhimurium
AFHHIFRGIVHVGKTIHRLVTG [Pis-F1A] was tested, and the MIC was 8.0 µM.

Each sequence was assayed on MRSA CCARM 3126. Details: CCARM 3126, 16 h.
Assay type: cell-based, Methicillin-resistant S. aureus
AFHHIFRGIVHVGKTIHRLVTG [Pis-F1A] gave an MIC of 8.0 µM.

These sequences were tested on S. aureus KCTC3881. Details: KCTC3881, 16 h.
Assay type: cell-based, Staphylococcus aureus
In the case of AFHHIFRGIVHVGKTIHRLVTG [Pis-F1A], the MIC is reported as 2.0 µM.

Each sequence was assayed on B. subtilis KCTC1021. Details: KCTC1021, 16 h.
Assay type: cell-based, Bacillus subtilis
AFHHIFRGIVHVGKTIHRLVTG [Pis-F1A] showed an MIC of 4.0 µM.

These sequences were tested on B. subtilis KCTC3068. Details: KCTC3068, 16 h.
Assay type: cell-based, Bacillus subtilis
AFHHIFRGIVHVGKTIHRLVTG [Pis-F1A] gave an MIC of 4.0 µM.

Each sequence was assayed on Standard bacterial strains. Details: average over the 14 standard bacterial strains of Table 2.
Assay type: cell-based
AFHHIFRGIVHVGKTIHRLVTG [Pis-F1A] was tested, and the “Average MIC” value was 3.2 µM.

These sequences were tested on MDRAB CCARM 12037. Details: broth microdilution, 37°C, 16 h, three independent experiments in triplicate, SD 14.0%.
Assay type: cell-based, multidrug-resistant Acinetobacter baumanii
Sequence AFHHIFRGIVHVGKTIHRLVTG [Pis-F1A] has an MIC of 2.0 µM.

The sequences below were run on MRSA CCARM 3108. Details: CCARM 3108, 16 h.
Assay type: cell-based, Methicillin-resistant S. aureus
Sequence AFHHIFRGIVHVGKTIHRLVTG [Pis-F1A] has an MIC of 8.0 µM.

Each sequence was assayed on E. coli KCTC1682. Details: KCTC1682, 16 h.
Assay type: cell-based, Escherichia coli
AFHHIFRGIVHVGKTIHRLVTG [Pis-F1A] gave an MIC of 2.0 µM.

The sequences below were run on B. subtilis KCTC1022. Details: KCTC1022, 16 h.
Assay type: cell-based, Bacillus subtilis
AFHHIFRGIVHVGKTIHRLVTG [Pis-F1A] showed an MIC of 1.0 µM.

Each sequence was assayed on E. coli KCTC2593. Details: KCTC2593, 16 h.
Assay type: cell-based, Escherichia coli
AFHHIFRGIVHVGKTIHRLVTG [Pis-F1A] gave an MIC of 2.0 µM.

These sequences were tested on S. epidermidis KCTC1917. Details: KCTC1917, 16 h.
Assay type: cell-based, Staphylococcus epidermidis
With AFHHIFRGIVHVGKTIHRLVTG [Pis-F1A] the MIC was 2.0 µM.

What follows are sequences tested on MDRAB CCARM 12005. Details: broth microdilution, 37°C, 16 h, three independent experiments in triplicate, SD 14.0%.
Assay type: cell-based, multidrug-resistant Acinetobacter baumanii
With AFHHIFRGIVHVGKTIHRLVTG [Pis-F1A] the MIC was 2.0 µM.

What follows are sequences tested on MRSA CCARM 3090. Details: CCARM 3090, 16 h.
Assay type: cell-based, Methicillin-resistant S. aureus
AFHHIFRGIVHVGKTIHRLVTG [Pis-F1A] showed an MIC of 8.0 µM.

The sequences below were run on P. aeruginosa KCTC2513. Details: KCTC2513, 16 h.
Assay type: cell-based, Pseudomonas aeruginosa
For AFHHIFRGIVHVGKTIHRLVTG [Pis-F1A], the MIC was 8.0 µM.

What follows are sequences tested on S. aureus KCTC1621. Details: KCTC1621, 16 h.
Assay type: cell-based, Staphylococcus aureus
For AFHHIFRGIVHVGKTIHRLVTG [Pis-F1A], the MIC was 1.0 µM.

These sequences were tested on P. aeruginosa KCTC2004. Details: KCTC2004, 16 h.
Assay type: cell-based, Pseudomonas aeruginosa
AFHHIFRGIVHVGKTIHRLVTG [Pis-F1A] was tested, and the MIC was 4.0 µM.

What follows are sequences tested on MDRST CCARM 8007. Details: broth microdilution, 37°C, 16 h, three independent experiments in triplicate, SD 14.0%.
Assay type: cell-based, multidrug-resistant S. typhimurium
For AFHHIFRGIVHVGKTIHRLVTG [Pis-F1A], the MIC was 8.0 µM.

These sequences were tested on P. aeruginosa KCTC1637. Details: KCTC1637, 16 h.
Assay type: cell-based, Pseudomonas aeruginosa
In the case of AFHHIFRGIVHVGKTIHRLVTG [Pis-F1A], the MIC is reported as 4.0 µM.

Each sequence was assayed on MDRPA CCARM 2002. Details: broth microdilution, 37°C, 16 h, three independent experiments in triplicate, SD 14.0%.
Assay type: cell-based, multidrug-resistant P. aeruginosa
AFHHIFRGIVHVGKTIHRLVTG [Pis-F1A] showed an MIC of 2.0 µM.

These sequences were tested on MDRAB CCARM 12035. Details: broth microdilution, 37°C, 16 h, three independent experiments in triplicate, SD 14.0%.
Assay type: cell-based, multidrug-resistant Acinetobacter baumanii
With AFHHIFRGIVHVGKTIHRLVTG [Pis-F1A] the MIC was 2.0 µM.

These sequences were tested on MDRST CCARM 8003. Details: broth microdilution, 37°C, 16 h, three independent experiments in triplicate, SD 14.0%.
Assay type: cell-based, multidrug-resistant S. typhimurium
For AFHHIFRGIVHVGKTIHRLVTG [Pis-F1A], the MIC was 8.0 µM.
